Values of other authors, collected in article PMC10017685 (Nature Communications, 2023).
Like-named read-outs stand apart in the source and are kept apart here.

Tested on: human erythrocytes
Set-up: method as in DBAASP
Conditions: cited from earlier work
[1] = toxicity class label 1 or 0, meaning of the labels not given, DBAASP HC50 data, human erythrocytes, ref DBAASP

| Sequence | Class (dedicated toxicity dataset used for toxicity classifier evaluation) [1] | Class (dedicated toxicity dataset used for toxicity classifier evaluation) |
| --- | --- | --- |
| GLMKRIKTML [DBAASP_8625] | 0 |  |
| GLNAFKKVFQGIHEAIKLINNHVQ [DBAASP_6933] | 0 |  |
| GLNALKKFFQGIHEAIKLINNHVQ [DBAASP_6934] | 0 |  |
| GLNALKKVFKGIHEAIKLINNHVQ [DBAASP_6924] | 0 |  |
| GLNALKKVFQGFHEAIKLINNHVQ [DBAASP_6935] | 0 |  |
| GLNALKKVFQGIHEAFKLINNHVQ [DBAASP_6936] | 0 |  |
| GLNALKKVFQGIHEAIKLFNNHVQ [DBAASP_6937] | 0 |  |
| GLNALKKVFQGIHEAIKLINKHVQ [DBAASP_6926] | 0 |  |
| GLNALKKVFQGIHEAIKLINNHVK [DBAASP_6927] | 0 |  |
| GLNALKKVFQGIHEAIKLINNHVQ [DBAASP_3355] | 0 |  |
| GLNALKKVFQGIHKAIKLINNHVQ [DBAASP_6925] | 0 |  |
| GLVGTLLGHIGKAILG [DBAASP_5369] | 0 |  |
| GLVGTLLGHIGKAILS [DBAASP_5370] | 0 |  |
| GLWSKIKDAAKTAGKAALGFVNEMV [DBAASP_14233] | 0 |  |
| GLWSKIKKAAKTAGKAALGFVNKMV [DBAASP_14234] | 0 |  |
| GMATKAGTAFGKAAKAIIGAAL [DBAASP_5720] | 0 |  |
| GMATKAGTALGKVAKAVIGAAL [DBAASP_2285] | 0 |  |
| GMLKRIKTLL [DBAASP_8628] | 0 |  |
| GMLKRIKTLM [DBAASP_8626] | 0 |  |
| GMMKRIKTMM [DBAASP_8621] | 0 |  |
| GRFKRFRKKFKKLFKKLS [DBAASP_628] | 0 |  |
| GRKKRRQRRRGALWKSLLKNVGKA [DBAASP_11807] |  | 0 |
| GVFLDALKKFAKGGMNAVLNPK [DBAASP_3156] | 0 |  |
| GVGKFLHSAKKFGQALASEIMKS [DBAASP_3769] | 0 |  |
| GVGKFLHSAKKFGQALVSEIMKS [DBAASP_3770] | 0 |  |

| Sequence | Class (dedicated toxicity dataset used for toxicity classifier evaluation) [1] | Class (dedicated toxicity dataset used for toxicity classifier evaluation) |
| --- | --- | --- |
| GVLKRIKTLV [DBAASP_8624] | 0 |  |
| GVSKILHSAGKFGKAFLGEIMKS [DBAASP_3776] | 0 |  |
| GVVDILKGAAKDIAGHLASKVMNKL [DBAASP_4358] | 0 |  |
| GVVDILKGAAKDLAGHLATKVMNKL [DBAASP_4357] | 0 |  |
| GVVKRIKTVV [DBAASP_8620] | 0 |  |
| GVWSTILGGLKKFAKGGLDAIVNPK [DBAASP_5716] | 0 |  |
| GVWSTVLGGLKKFAKGGLEAIVNPK [DBAASP_3155] | 0 |  |
| GWASSIGSILGKFAKGGAQAFLQPK [DBAASP_5714] | 0 |  |
| GWGSFFKKAAHVGKHVGKAALTHYL [DBAASP_1004] | 0 |  |
| GWGSIFKHGRHAAKHIGHAAVNHYL [DBAASP_1420] | 0 |  |
| GWKDLLKGAAKALVKTVF [DBAASP_11233] | 0 |  |
| GWKKWFNRAKKVGKTVGGLAVDHYL [DBAASP_996] | 0 |  |
| GWKKWFTKGERLSQRHFA [DBAASP_1000] | 0 |  |
| GWKKWLRKGAKHLGQAAIK [DBAASP_1434] | 0 |  |
| GWKKWLRKGAKHLGQAAIKGLAS [DBAASP_1435] | 0 |  |
| GWKSVFRKAKKVGKTVGGLALDHYL [DBAASP_995] | 0 |  |
| GWLDVAKKIGKAAFNVAKNFI [DBAASP_7670] | 1 |  |
| GWLDVAKKIGKAAFNVAKNFL [DBAASP_10137] | 0 |  |
| GWLDVAKKKGKAAFNVAKNFI [DBAASP_7674] | 0 |  |
| GWLPTFGKILRKAMQLGPKLIQPI [DBAASP_5715] | 0 |  |
| GWRTLLKKAEVKTVGKLALKHYL [DBAASP_1409] | 0 |  |
| HFKGTLVNLAKKIL [DBAASP_5016] | 0 |  |
| HFLGKLVNLAKKIL [DBAASP_5018] | 0 |  |
| HFLGTKVNLAKKIL [DBAASP_5020] | 0 |  |
| HFLGTLKNLAKKIL [DBAASP_5019] | 0 |  |

| Sequence | Class (dedicated toxicity dataset used for toxicity classifier evaluation) [1] | Class (dedicated toxicity dataset used for toxicity classifier evaluation) |
| --- | --- | --- |
| HFLGTLVKLAKKIL [DBAASP_5021] | 0 |  |
| HFLGTLVNKAKKIL [DBAASP_5023] | 0 |  |
| HFLGTLVNLAKKIK [DBAASP_5026] | 0 |  |
| HFLGTLVNLAKKKL [DBAASP_5025] | 0 |  |
| HFLGTLVNLKKKIL [DBAASP_5024] | 0 |  |
| HFLKTLVNLAKKIL [DBAASP_5017] | 0 |  |
| HKLGTLVNLAKKIL [DBAASP_5015] | 0 |  |
| HWRRFWHR [DBAASP_12822] | 0 |  |
| IAGKIAKIAGKIAKIAGKIA [DBAASP_14993] |  | 1 |
| IAGKIAKIAGKIAKIAGKIAK [DBAASP_14998] |  | 0 |
| IAKIAGKIAKIAGKIA [DBAASP_14991] | 0 |  |
| IAKIAGKIAKIAGKIAK [DBAASP_14997] |  | 0 |
| IAKIAGKIAKIAGKIAKIAGKIA [DBAASP_14994] | 1 |  |
| IAKIAGKIAKIAGKIAKIAGKIAK [DBAASP_14999] |  | 1 |
| IFGAILPLALGALKNLIK [DBAASP_3892] | 1 |  |
| IFGAIWPLALGALKNLIK [DBAASP_9405] | 1 |  |
| IIKKIIKKIIKK [DBAASP_13883] | 0 |  |
| IIKKIIKKIIKKI [DBAASP_13881] | 0 |  |
| IKKIIKKI [DBAASP_10843] | 0 |  |
| IKKILSKIKKLL [DBAASP_10745] | 0 |  |
| IKKILSKIKKLLK [DBAASP_7154] | 0 |  |
| IKKIVSKIKKLL [DBAASP_7244] | 0 |  |
| IKKIVSKIKKLLK [DBAASP_7245] | 0 |  |
| IKKIVSKIKKVLK [DBAASP_7246] | 0 |  |
| IKKWWSKIKKLLK [DBAASP_7156] | 0 |  |

| Sequence | Class (dedicated toxicity dataset used for toxicity classifier evaluation) [1] | Class (dedicated toxicity dataset used for toxicity classifier evaluation) |
| --- | --- | --- |
| IKNAKVCVYAVCVSHK [DBAASP_12238] | 0 |  |
| IKWKKLLRAAKRIL [DBAASP_2253] | 0 |  |
| ILGAILPLVSGLLSNKL [DBAASP_4393] | 0 |  |
| ILGKLLKTAAGLLSNL [DBAASP_4361] | 1 |  |
| ILGKLLKTAAKLLSNL [DBAASP_4365] | 0 |  |
| ILGKLLSTAAGLLKNL [DBAASP_4363] | 0 |  |
| ILGKLLSTAAGLLSKL [DBAASP_4364] | 0 |  |
| ILGKLLSTAAKLLSKL [DBAASP_4366] | 1 |  |
| ILGKLLSTAAKLLSNL [DBAASP_4362] | 1 |  |
| ILKKLLSTAAGLLSNL [DBAASP_4360] | 0 |  |
| ILPFKFPFFPFRR [DBAASP_4761] | 0 |  |
| ILPILGNLLNGLL [DBAASP_3402] | 0 |  |
| ILPILGNLLNSLL [DBAASP_3403] | 0 |  |
| ILPILSLIGGLL [DBAASP_3346] | 0 |  |
| ILPIRSLIKKLL [DBAASP_5721] | 0 |  |
| ILPWKWPWWPWRR [DBAASP_491] | 0 |  |
| ILPYKYPYYPYRR [DBAASP_4763] | 0 |  |
| INWIKIGKKIIASL [DBAASP_18234] | 0 |  |
| IPPFIKKVLTTVF [DBAASP_3483] | 0 |  |
| ITEVITILLNRLTDRLEK [DBAASP_13425] | 0 |  |
| ITKQITKQLNRQTKIQSK [DBAASP_13427] | 0 |  |
| KALWKTMLKKLGTMAL [DBAASP_10105] | 0 |  |
| KFKKLFKKLSPVFKRIVQRIKDFLR [DBAASP_13190] | 0 |  |
| KFKKVIWKSFL [DBAASP_13719] | 0 |  |
